# Literature values as cited in patent publication US20020038007A1, “Method of finding agonist and antagonist to human 11cb splice variant” (priority 1996, published 2002).
# Key:
# [1] = injection into lateral ventricles of rats
# [2] = intracerebroventricular injection; Presse, F et al Neuroscience 1996
substance,measurement,setting,value
H-Asp-Phe-Asp-Met-Leu-Arg-Cys-Met-Leu-Gly-Arg-Val-Tyr-Arg-Pro-Cys-Trp-Gln-Val-OH (H-DFDMLRCMLGRVYRPCWQV-OH; cysteine pairing not given here) [MCH],food consumption,[1],increased food consumption
same,feeding,[2],inhibit feeding
